In publication PMC11202002, “P18: Novel Anticancer Peptide from Induced Tumor-Suppressing Cells Targeting Breast Cancer and Bone Metastasis” (Cancers, 2024):

How the values were obtained:
[1] = test system: RANKL-stimulated osteoclasts; assay: Osteoclast differentiation and maturation; format: cell-based; conditions: 25 μg/mL
[2] = test system: 4T1.2 mammary tumor cells; assay: Scratch-based motility assay; format: cell-based, mouse; conditions: 25 μg/mL
Experimental: To evaluate the two-dimensional motility of cancer cells, a wound-healing scratch assay was utilized, and the change in the scratch area was determined. On day 1, ~3 × 10^5 cells were seeded in 12-well plates, and, on day 2, a scratch was made on the cell layer, with the tip of a plastic pipette. Using a light microscope (40×), cell-free zones were imaged after 0 h and 24 h, and the alteration in their areas was quantified by Image J (Version 1.54 f).

MC3T3 osteoblasts = format: cell-based
Experimental: (§1) Using 96-well plates with approximately 2000 cells per well, an MTT-based metabolic activity assay was performed. The cells were treated with agents and incubated for two days. On the fourth day, they were stained with 0.5 mg/mL thiazolyl blue tetrazolium bromide (M5655, Sigma). The optical density, used to assess metabolic activity, was measured at 562 nm. For the EdU-based proliferation activity assay, the cells were seeded in 96-well plates at about 1000 cells per well. A fluorescence-based cell proliferation kit (Click-iT™, EdU Alexa Fluor™ 488 Imaging Kit; Thermo Fisher, Waltham, MA, USA) was used according to the manufacturer’s instructions.

Jurkat lymphocytes = format: cell-based
Experimental: as §1

[3] = test system: femurs inoculated with 4T1.2 mammary tumor cells; assay: Bone microenvironment assay (ex vivo bone culture, Western blot); format: cell-based, mouse; conditions: 25 μg/mL P18 daily; 2 weeks
Experimental: Cells were lysed using a RIPA lysis buffer (sc-24948, Santa Cruz Biotech, Dallas, TX, USA) containing protease inhibitors (PIA32963, Thermo Fisher) and phosphatase inhibitors (2006643, Cal-biochem, Billerica, MA, USA). The proteins were separated on 10–15% SDS gels (Bio-Rad Laboratories, Hercules, CA, USA) and transferred to a polyvinylidene difluoride membrane (IPVH00010, Millipore, Billerica, MA, USA). The membrane was incubated with primary antibodies, followed by incubation with secondary antibodies (7074S/7076S, Cell Signaling, Danvers, MA, USA). The antibodies used included those against Snail, p-Src, Src, cleaved caspase 3, caspase 3, RANKL, Cdc42, Col1 and RhoA (Cell Signaling), ALP (Santa Cruz Biotech), OCN (Abcam, Boston, MA, USA), with β-actin (Sigma) as a control. The protein levels were detected using SuperSignal West Femto Maximum Sensitivity Substrate (PI34096, Thermo Fisher) and a luminescent image analyzer (LAS-3000, Fuji Film, Tokyo, Japan).
Femora were collected from […] female mice (~10 weeks old), and the surrounding connective tissues were removed. The femora were cut in half at the mid-diaphysis, and a hole was created at the end of the sample using a 25-gauge needle. 4T1.2 mammary tumor cells (2.5 × 10^5 cells) were resuspended in 10 μL of culture medium and injected into the bone marrow cavity through the open end of the diaphysis. […]

MCF7 cells = assay: MTT-based cell viability assay; parameters: species or system human; conditions: 5, 10, 15, and 25 µg/mL of P18
Experimental: as §1

MDA-MB-231 cells = assay: MTT-based cell viability assay; parameters: species or system human
Experimental: as §1

MDA-MB-436 cells = assay: MTT-based cell viability assay; parameters: species or system human
Experimental: as §1

[4] = relative to cn = 1.00, peptide concentration not given, treated two days, OD 562 nm

TDYMVGSYGPR [P18]
differentiation and maturation of RANKL-stimulated osteoclasts [1]: inhibited
number of multi-nucleated TRAP-positive osteoclasts (more than three nuclei) [1]: significantly reduced
scratch-based mobility [2]: consistently reduced
MTT viability (MC3T3 osteoblasts): did not exhibit any significant effects
MTT viability (Jurkat lymphocytes): did not exhibit any significant effects
levels of c-Cas 3, Cdc42, and alkaline phosphatase (ALP) [3]: upregulation
decrease in MTT viability (MCF7 cells): dose-dependent
decrease in MTT viability (MDA-MB-231 cells; 5, 10, 15, and 25 µg/mL of P18): dose-dependent
MTT-based relative viability (MDA-MB-231 cells; [4]): 0.86
decrease in MTT viability (MDA-MB-436 cells; 5, 10, 15, and 25 µg/mL of P18): dose-dependent
MTT-based relative viability (MDA-MB-436 cells; [4]): 0.82
